Measured values published in patent US20100076015A1, “Aminopyridine Derivatives” (VANTIA LIMITED, priority 2008, published 2010).

target: T1, Human KLK1 (Homo sapiens, UniProt P06870); assay: Determination of the IC50 for KLK1 (fluorogenic substrate H-DVal-Leu-Arg-AFC); type: biochemical; settings: 37° C.
T1 construct: purchased Callbiochem (Calbiochem)
In short: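 Human KLK1 incubated at 37 °C with fluorogenic substrate H-DVal-Leu-Arg-AFC and a range of test compound concentrations. Residual activity was taken as initial reaction rate from absorbance change at 410 nm, and the IC50 derived from it.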

T1 sequence (P06870 25-262): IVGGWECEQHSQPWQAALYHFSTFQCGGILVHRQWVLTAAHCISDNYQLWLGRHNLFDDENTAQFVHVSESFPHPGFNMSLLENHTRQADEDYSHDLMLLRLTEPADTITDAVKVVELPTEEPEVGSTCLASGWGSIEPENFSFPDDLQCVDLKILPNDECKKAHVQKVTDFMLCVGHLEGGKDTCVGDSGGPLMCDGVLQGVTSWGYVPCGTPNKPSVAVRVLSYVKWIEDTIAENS

Structure (SMILES) | IC50 [nM]
CCC(C)[C@@H](N)C(=O)N[C@@H](Cc1ccc(O)cc1)C(=O)NCc1ccc(N)nc1 (stereo partly drawn) [Example 37, (R)-2-Amino-3-methyl-pentanoic acid [(S)-1-[(6-amino-pyridin-3-ylmethyl)-carbamoyl]-2-(4-hydroxy-phenyl)-ethyl]-amide] | 626
Nc1ccc(CNC(=O)[C@H](Cc2c(F)c(F)c(F)c(F)c2F)NC(=O)c2cc3ccccc3[nH]2)cn1 [Example 329, 1H-Indole-2-carboxylic acid {(S)-1-[(6-amino-pyridin-3-ylmethyl)-carbamoyl]-2-pentafluorophenyl-ethyl}-amide] | 299
CC(C)N1CCCC[C@@H]1C(=O)N[C@@H](Cc1ccc(F)c(F)c1)C(=O)NCc1ccc(N)nc1 [Example 146, (R)-1-Isopropyl-piperidine-2-carboxylic acid [(S)-1-[(6-amino-pyridin-3-ylmethyl)-carbamoyl]-2-(3,4-difluoro-phenyl)-ethyl]-amide] | 102
CN1CCC[C@@H]1C(=O)N[C@@H](CC1CCCCC1)C(=O)NCc1ccc(N)nc1 [Example 115, (R)-1-Methyl-pyrrolidine-2-carboxylic acid {(S)-1-[(6-amino-pyridin-3-ylmethyl)-carbamoyl]-2-cyclohexyl-ethyl}-amide] | 19.5
CC(C)N(C)[C@@H](CO)C(=O)N[C@@H](CC1CCCCC1)C(=O)NCc1ccc(N)nc1 [Example 388, (S)—N-{(S)-1-[(6-Amino-pyridin-3-ylmethyl)-carbamoyl]-2-cyclohexyl-ethyl}-3-hydroxy-2-(isopropyl-methyl-amino)-propionamide] | 22.2
CCCN(C)[C@@H](C)C(=O)N[C@@H](Cc1ccc(F)c(F)c1)C(=O)NCc1ccc(N)nc1 [Example 346, (S)—N-[(S)-1-[(6-Amino-pyridin-3-ylmethyl)-carbamoyl]-2-(3,4-difluoro-phenyl)-ethyl]-2-(methyl-propyl-amino)-propionamide] | 21.3
Cc1nc(N)ccc1CNC(=O)[C@H](Cc1ccc(Cl)c(Cl)c1)NC(=O)[C@H](N)Cc1cccnc1 [Example 196, (R)-2-Amino-N-[(S)-1-[(6-amino-2-methyl-pyridin-3-ylmethyl)-carbamoyl]-2-(3,4-dichloro-phenyl)-ethyl]-3-pyridin-3-yl-propionamide] | 23.2
Cc1nc(N)ccc1CNC(=O)[C@H](Cc1ccc(Cl)c(Cl)c1)NC(=O)[C@H]1CC(F)(F)CN1 [Example 192, (R)-4,4-Difluoro-pyrrolidine-2-carboxylic acid [(S)-1-[(6-amino-2-methyl-pyridin-3-ylmethyl)-carbamoyl]-2-(3,4-dichloro-phenyl)-ethyl]-amide] | 60.4
COc1cccc(C[C@H](NC(=O)[C@H]2CCCN2C)C(=O)NCc2ccc(N)nc2)c1 [Example 107, (R)-1-Methyl-pyrrolidine-2-carboxylic acid [(S)-1-[(6-amino-pyridin-3-ylmethyl)-carbamoyl]-2-(3-methoxy-phenyl)-ethyl]-amide] | 71.2
Nc1ccc(CNC(=O)[C@H](NC(=O)[C@@H](N)Cc2ccccc2)C(C2CCCCC2)C2CCCCC2)cn1 [Example 216, (S)-2-Amino-N-{(R)-1-[(6-amino-pyridin-3-ylmethyl)-carbamoyl]-2,2-dicyclohexyl-ethyl}-3-phenyl-propionamide] | 24.4
CN(CC(=O)N[C@@H](Cc1ccc(F)c(F)c1)C(=O)NCc1ccc(N)nc1)CC1CCCCC1 [Example 169, (S)—N-(6-Amino-pyridin-3-ylmethyl)-2-[2-(cyclohexylmethyl-methyl-amino)-acetylamino]-3-(3,4-difluoro-phenyl)-propionamide] | 334
NCC(=O)N[C@@H](C(=O)NCc1ccc(N)nc1)C(C1CCCCC1)C1CCCCC1 [Example 220, (R)-2-(2-Amino-acetylamino)-N-(6-amino-pyridin-3-ylmethyl)-3,3-dicyclohexyl-propionamide] | 55.5
Cc1cc[nH]c1C(=O)N[C@@H](Cc1cc(Cl)ccc1Cl)C(=O)NCc1ccc(N)nc1 [Example 263, 3-Methyl-1H-pyrrole-2-carboxylic acid [(S)-1-[(6-amino-pyridin-3-ylmethyl)-carbamoyl]-2-(2,5-dichloro-phenyl)-ethyl]-amide] | 20.5
CCCCN(C)[C@@H](C)C(=O)N[C@@H](Cc1ccc(F)c(F)c1)C(=O)NCc1ccc(N)nc1 [Example 347, (S)—N-[(S)-1-[(6-Amino-pyridin-3-ylmethyl)-carbamoyl]-2-(3,4-difluoro-phenyl)-ethyl]-2-(butyl-methyl-amino)-propionamide] | 24.5
CN(C)C(Cc1ccccc1)C(=O)NC(Cc1cccc(Cl)c1)C(=O)NCc1ccc(N)nc1 [Example 407, (R)—N-[(S)-1-[6-Amino-pyridin-3-ylmethyl)-carbamoyl]-2-(3-chloro-phenyl)-ethyl]-2-dimethylamino-3-phenyl-propionamide] | 17
COc1ccc(C[C@H](NC(=O)[C@H]2CCCN2C)C(=O)NCc2ccc(N)nc2)cc1 [Example 100, (R)-1-Methyl-pyrrolidine-2-carboxylic acid [(S)-1-[(6-amino-pyridin-3-ylmethyl)-carbamoyl]-2-(4-methoxy-phenyl)-ethyl]-amide] | 85.8

The next molecules have a lower IC50 than those just listed; values first:

IC50 [nM] | Structure (SMILES)
1.8 | Cc1cccc(C[C@H](NC(=O)c2[nH]c(C)cc2C)C(=O)NCc2ccc(N)nc2C)c1 [Example 281, 3,5-Dimethyl-1H-pyrrole-2-carboxylic acid {(S)-1-[(6-amino-2-methyl-pyridin-3-ylmethyl)-carbamoyl]-2-m-tolyl-ethyl}-amide]
2.1 | CC(C)N1CCC[C@@H]1C(=O)N[C@@H](Cc1cccc2ccccc12)C(=O)NCc1ccc(N)nc1 [Example 118, (R)-1-Isopropyl-pyrrolidine-2-carboxylic acid {(S)-1-[(6-amino-pyridin-3-ylmethyl)-carbamoyl]-2-naphthalen-1-yl-ethyl}-amide]
5.7 | Cc1cc[nH]c1C(=O)N[C@@H](Cc1cccc(Cl)c1)C(=O)NCc1ccc(N)nc1 [Example 266, 3-Methyl-1H-pyrrole-2-carboxylic acid [(S)-1-[(6-amino-pyridin-3-ylmethyl)-carbamoyl]-2-(3-chloro-phenyl)-ethyl]-amide]
4.8 | CCN(C)C(C)C(=O)NC(Cc1cccc(Cl)c1)C(=O)NCc1ccc(N)nc1 [Example 408, (S)—N-[(S)-1-[6-Amino-pyridin-3-ylmethyl)-carbamoyl]-2-(3-chloro-phenyl)-ethyl]-2-(ethyl-methyl-amino)-propionamide]
0.63 | CC(C)N(C)C(C)C(=O)NC(Cc1cccc(Cl)c1)C(=O)NCc1ccc(N)nc1 [Example 409, (S)—N-[(S)-1-[6-Amino-pyridin-3-ylmethyl)-carbamoyl]-2-(3-chloro-phenyl)-ethyl]-2-(isopropyl-methyl-amino)-propionamide]
7.2 | Nc1ccc(CNC(=O)[C@H](Cc2cccc3ccccc23)NC(=O)c2cc3cc(O)ccc3[nH]2)cn1 [Example 302, 5-Hydroxy-1H-indole-2-carboxylic acid {(S)-1-[(6-amino-pyridin-3-ylmethyl)-carbamoyl]-2-naphthalen-1-yl-ethyl}-amide]
5.4 | Cc1nc(N)ccc1CNC(=O)[C@H](Cc1ccc(Cl)c(Cl)c1)NC(=O)[C@H](N)Cc1ccc(Cl)cc1 [Example 195, (R)-2-Amino-N-[(S)-1-[(6-amino-2-methyl-pyridin-3-ylmethyl)-carbamoyl]-2-(3,4-dichloro-phenyl)-ethyl]-3-(4-chloro-phenyl)-propionamide]
11 | CN[C@@H](C(=O)N[C@@H](Cc1ccc(F)cc1)C(=O)NCc1ccc(N)nc1)C(C)C [Example 89, (R)—N-[(S)-1-[(6-Amino-pyridin-3-ylmethyl)-carbamoyl]-2-(4-fluoro-phenyl)-ethyl]-3-methyl-2-methylamino-butyramide]
3.3 | Cc1cc[nH]c1C(=O)N[C@@H](Cc1cccc(C(F)(F)F)c1)C(=O)NCc1ccc(N)nc1 [Example 271, 3-Methyl-1H-pyrrole-2-carboxylic acid [(S)-1-[(6-amino-pyridin-3-ylmethyl)-carbamoyl]-2-(3-trifluoromethyl-phenyl)-ethyl]-amide]
5.7 | CN(CC(=O)N[C@@H](Cc1ccc(Cl)c(Cl)c1)C(=O)NCc1ccc(N)nc1)Cc1ccccc1 [Example 152, (S)—N-(6-Amino-pyridin-3-ylmethyl)-2-[2-(benzyl-methyl-amino)-acetylamino]-3-(3,4-dichloro-phenyl)-propionamide]
5.1 | Cc1nc(N)ccc1CNC(=O)[C@H](Cc1ccc(Cl)c(Cl)c1)NC(=O)[C@H](N)Cc1ccc(F)cc1 [Example 194, (R)-2-Amino-N-[(S)-1-[(6-amino-2-methyl-pyridin-3-ylmethyl)-carbamoyl]-2-(3,4-dichloro-phenyl)-ethyl]-3-(4-fluoro-phenyl)-propionamide]
3.1 | Nc1ccc(CNC(=O)[C@H](Cc2ccc(Cl)c(Cl)c2)NC(=O)[C@H](N)CCc2ccccc2)cn1 [Example 67, (R)-2-Amino-N-[(S)-1-[(6-amino-pyridin-3-ylmethyl)-carbamoyl]-2-(3,4-dichloro-phenyl)-ethyl]-4-phenyl-butyramide]
9.2 | Nc1ccc(CNC(=O)[C@H](Cc2ccc(Cl)c(Cl)c2)NC(=O)[C@H](N)CC2CCCCC2)cn1 [Example 68, (R)-2-Amino-N-[(S)-1-[(6-amino-pyridin-3-ylmethyl)-carbamoyl]-2-(3,4-dichloro-phenyl)-ethyl]-3-cyclohexyl-propionamide]
12.1 | COc1ccc2[nH]c(C(=O)N[C@@H](Cc3cccc(C)c3)C(=O)NCc3ccc(N)nc3)cc2c1 [Example 318, 5-Methoxy-1H-indole-2-carboxylic acid {(S)-1-[(6-amino-pyridin-3-ylmethyl)-carbamoyl]-2-m-tolyl-ethyl}-amide]
4.5 | CCC(C)[C@@H](NC)C(=O)N[C@@H](Cc1cccc2ccccc12)C(=O)NCc1ccc(N)nc1C (stereo partly drawn) [Example 203, (R)-3-Methyl-2-methylamino-pentanoic acid {(S)-1-[(6-amino-2-methyl-pyridin-3-ylmethyl)-carbamoyl]-2-naphthalen-1-yl-ethyl}-amide]
